Source: PMC8575619, “Cytotoxic and Antifungal Amides Derived from Ferulic Acid: Molecular Docking and Mechanism of Action” (BioMed Research International, 2021)
Values after ≈ are worked out from the molar mass of the structure shown. Values joined by “and” are separate entries in the source; they are usually repeats but may differ in a detail not shown here. Equal values may be shown once. Read-outs that look alike come from different tables or passages of the source. Values belong to the compound of their own block, whether it stands above or below them.

Columns and labels:
MRC5 = test: Cytotoxicity assay, alamar blue test (healthy cell line); assay type: cell-based, human; conditions: value (95% confidence interval)
Protocol: (§1) HepG2 cells (human hepatocellular carcinoma), HCT116 (human colon carcinoma), HL-60 (human promyelocytic leukemia), and MRC5 (human lung fibroblast) obtained from the ATCC (Manassas, VA, USA) were used. Cells were cultured in cell culture bottles (75 cm 3, 250 mL volume), and media used were RPMI 1640 and supplemented with 10% fetal bovine serum. Cells were maintained in incubators with 5% CO2 atmosphere at 37°C. Cellular growth was monitored daily with the use of an inversion microscope. The medium was changed whenever cell growth reached the necessary confluence for nutrient renewal. For the maintenance of adhered cells, trypsin (0.25%) was used for the cells to detach from the walls of the bottles.
(§2) To assess the cytotoxicity of the substances, the alamar blue test was performed after 72 h of exposure with the test substances. Alamar blue, known as resazurin [62], is a fluorescent/colorimetric indicator with redox properties. The reduction in alamar blue reflects cell proliferation. This was initially used to indicate cell growth and/or viability in monitoring lymphocyte proliferation and currently has several applications. Initially, cells were plated in 96-well plates (100 μL/well of a solution of 0.3 × 10^6 cells/mL for cells in suspension and 0.7 × 10^5 cells/mL for adhered cells). After 24 h of incubation, the test substances dissolved in DMSO were added to each well and incubated for 72 h. Doxorubicin was used as a positive control. The negative control received the same amount of DMSO. Four hours before the end of the incubation period, 20 μL of the stock solution (0.312 mg/mL) of alamar blue (resazurin) was added to each well. Absorbances were measured at wavelengths of 570 nm (reduced) and 600 nm (oxidized) using a plate reader.

HCT116 = test: Cytotoxicity assay, alamar blue test; assay type: cell-based, human; conditions: value (95% confidence interval)
Protocol: as §1, §2

HL-60 = test: Cytotoxicity assay, alamar blue test; assay type: cell-based, human; conditions: value (95% confidence interval); for IC50: read-out: IC50 HL60
Protocol: as §1, §2

HepG2 cells = test: Cytotoxicity assay, alamar blue test; assay type: cell-based, human; conditions: value (95% confidence interval)
Protocol: as §1, §2

C. albicans = test: Ergosterol test (plasma membrane mechanism), microdilution; assay type: cell-based, Candida albicans; conditions: for MIC Without ergosterol: absence of ergosterol
Protocol: (2) Ergosterol Test. The test of the compounds was performed using the microdilution technique, as previously described, in the presence of exogenous ergosterol at 400 μg/mL. Nystatin was used as positive control. The plates were incubated at 35 ± 2°C, and readings were taken at 24 and 48 h.

[1] = system: Candida tropicalis CBS 94; test: Minimum fungicide concentration (MFC); assay type: cell-based; conditions: ≥ 4 fungistatic or <4 fungicide
Protocol: (§3) Antifungal activity evaluations were performed using references strains of Candida spp., obtained from the Centraalbureau voor Schimmelcultures (CBS, Ultrecht, Netherlands): Candida albicans CBS 562, Candida tropicalis CBS 94, and Candida krusei CBS 573. Nystatin, Tween 80%, DMSO, caspofungin diacetate, and ergosterol were obtained from Sigma-Aldrich® (St. Louis, MO, EUA) and sorbitol (D-sorbitol anhydrous) from INLAB® (São Paulo, Brazil). All assays were performed in triplicate in three independent experiments. The culture medium used for maintenance of the microorganisms was Agar Sabouraud Dextrose (ASD). Inoculants were adjusted to a final concentration of 2.5 × 10^3 CFU/mL (Clinical and Laboratory Standards Institute, 2002). […]
(§4) The minimum fungicide concentration (MFC) of the compounds was obtained after the interpretation of the MIC. Three (3) aliquots of 30 μL of supernatant were removed from the wells (where complete inhibition of fungal growth was analyzed) and placed in Petri dishes containing 15 mL of agar Sabouraud dextrose. The plates were incubated at 35 ± 2°C for 24 h for visual counting of colony forming units. To determine whether the compounds had fungistatic (MFC/MIC ≥ 4) or fungicidal (MFC/MIC < 4) activity, the MFC/MIC ratio was calculated.

Candida krusei CBS 573 = test: Minimum fungicide concentration (MFC); assay type: cell-based; conditions: ≥ 4 fungistatic or <4 fungicide
Protocol: as §3, §4

Candida albicans CBS 562 = test: Minimum fungicide concentration (MFC); assay type: cell-based; conditions: ≥ 4 fungistatic or <4 fungicide
Protocol: as §3, §4

C. albicans CBS 562 = test: Sorbitol assay (cell wall mechanism), microdilution; assay type: cell-based, Candida albicans; conditions: C. albicans CBS 562
Protocol: (1) Sorbitol Assay. The microdilution technique was performed in the presence of sorbitol (D-sorbitol, anhydrous) (INLAB laboratory), to determine the mode of action of the compounds on the cell wall of C. albicans CBS 562. For this test, the inoculum was prepared with sorbitol to a final concentration of 0.8 M. The plates were incubated at 35 ± 2°C, and readings were taken 24 h and 48 h after incubation. Caspofungin was used as positive control at an initial concentration of 5 mg/mL [68–70].

[2] = system: Candida strains (Candida albicans, C. tropicalis, and C. krusei); test: Antifungal evaluation (MIC/MFC), statements for all Candida strains; assay type: cell-based, Candida spp.
Protocol: The antifungal activity (Table 2) of the ten amides was assessed via the minimum inhibitory concentration (MIC) which was determined using the microdilution methods against three species of Candida strains (Candida albicans, C. tropicalis, and C. krusei).
as §3
MIC was determined by the microdilution technique, as previously described by the adapted Clinical and Laboratory Standards Institute (CLSI, 2002) method. The compounds were subjected to the microdilution technique in 96-well plates, with U bottom. The samples were dissolved with DMSO and sterile distilled water (up to 1.0 mL). Through serial dilutions, concentrations of the evaluated compounds ranging from 1000 μg/mL to 7.8 μg/mL. The culture sterility medium, the evaluated substances, and the microbial growth were carried out in parallel. The plates were closed and subjected to a temperature of 35 ± 2°C for 24 h. 1% TTC (2,3,5-triphenyl tetrazolium chloride, Sigma-Aldrich®, St. Louis, MO, EUA) was added to each well to confirm the presence of viable microorganisms. MIC was defined as the lowest concentration of the test substance that inhibits visible microbial growth.
as §4, with “units.” for “units. To determine whether the compounds had fungistatic (MFC/MIC ≥ 4) or fungicidal (MFC/MIC < 4) activity, the MFC/MIC ratio was calculated.”

Compound: (E)-3-(3-hydroxy-4-methoxyphenyl)-N-phenylacrylamide [Compound 5]
IC50 (MRC5; 72 h): > 88.2 µM | IC50 MRC5 (MRC5; 72 h): >25 mg/L | IC50 (HCT116; 72 h): > 88.2 µM | IC50 HCT116 (HCT116; 72 h): >25 mg/L | IC50 HL60 (HL-60; 72 h): 14.28 (9.40–21.70) μg/mL | IC50 (HL-60; 72 h): 50.4 µM | IC50 (HepG2 cells; 72 h): > 88.2 µM | IC50 HEPG2 (HepG2 cells; 72 h): >25 mg/L

Compound: COc1cccc2c1C(=O)c1c(O)c3c(c(O)c1C2=O)C[C@@](O)(C(=O)CO)C[C@@H]3O[C@H]1C[C@H](N)[C@H](O)[C@H](C)O1 [DOX, Doxorubicin, reference compound]
IC50 (MRC5; Homo sapiens, MRC5, 72 h): 1 µg/mL and 1.84 µM | IC50 (HCT116; Homo sapiens, HCT-116, 72 h): 0.02 µg/mL and 40 nM | IC50 (HL-60; Homo sapiens, HL-60, 72 h): 0.03 µg/mL and 60 nM | IC50 (HepG2 cells; Homo sapiens, HepG2, 72 h): 0.01 µg/mL and 20 nM

Compound: (E)-N-(3,4-dimethoxybenzyl)-3-(3-hydroxy-4-methoxyphenyl)acrylamide [Compound 10]
MIC Without ergosterol (C. albicans): 62.25 mg/L | MIC/MFC reason C. tropicalis CBS 94 [1]: 1 | MIC/MFC reason C. krusei CBS 573 (Candida krusei CBS 573): 1 | MIC/MFC reason C. albicans CBS 562 (Candida albicans CBS 562): 1 | IC50 (MRC5; 72 h): > 78.9 µM | IC50 MRC5 (MRC5; 72 h): >25 mg/L | MIC Without sorbitol (C. albicans CBS 562; absence of sorbitol): 31.25 mg/L | MIC With sorbitol (C. albicans CBS 562; sorbitol 0.8 M): >1000 mg/L | bioactivity category by MIC ([2]; Candida strains): good bioactivity (good bioactivity (MIC between 26 and 125 μg/mL)) | IC50 (HCT116; 72 h): > 78.9 µM | IC50 HCT116 (HCT116; 72 h): >25 mg/L | IC50 HL60 (HL-60; 72 h): 12.51 (7.41–18.12) μg/mL | IC50 (HL-60; 72 h): 36.5 µM | IC50 (HepG2 cells; 72 h): > 78.9 µM | IC50 HEPG2 (HepG2 cells; 72 h): >25 mg/L

melting point: 75 to 81 °C
Compound: COc1cc(/C=C/C(=O)NCC(C)C)ccc1O [Compound 2, (E)-3-(4-hydroxy-3-methoxyphenyl)-N-isobutylacrylamide]
IC50 (MRC5; Homo sapiens, MRC5, 72 h): > 25 µg/mL and > 100 µM | IC50 (HCT116; Homo sapiens, HCT-116, 72 h): > 25 µg/mL and > 100 µM | IC50 (HL-60; Homo sapiens, HL-60, 72 h): > 25 µg/mL and > 100 µM | IC50 (HepG2 cells; Homo sapiens, HepG2, 72 h): > 25 µg/mL and > 100 µM

Compound: C[C@@H]1[C@H](O)[C@@H](C)/C=C/C=C/CC/C=C/C=C/C=C/C=C/C(O[C@H]2O[C@H](C)[C@@H](O)[C@H](N)[C@@H]2O)CC2O[C@](O)(CC(O)C(O)CCC(O)CC(O)CC(O)CC(=O)O[C@H]1C)CC(O)C2C(=O)O (some centres unmarked) [Nystatin, reference compound]
MIC Without ergosterol (C. albicans): 3.75 mg/L (≈ 4.05 µM) | MIC With ergosterol (C. albicans; exogenous ergosterol at 400 μg/mL): 31.25 mg/L (≈ 33.7 µM) | MIC/MFC reason C. tropicalis CBS 94 [1]: 1 | MIC/MFC reason C. krusei CBS 573 (Candida krusei CBS 573): 1 | MIC/MFC reason C. albicans CBS 562 (Candida albicans CBS 562): 1 | MFC ([2]; stated for all Candida strains): 4.3 µM (≈ 3.98 µg/mL) | MIC ([2]; stated for all Candida strains): 4.3 µM (≈ 3.98 µg/mL)

melting point: 158 to 162 °C
Compound: COc1ccc(/C=C/C(=O)N2CCCC2)cc1O [Compound 3, (E)-3-(3-hydroxy-4-methoxyphenyl)-1-(pyrrolidin-1-yl)prop-2-en-1-one]
IC50 (MRC5; Homo sapiens, MRC5, 72 h): > 25 µg/mL and > 95.7 µM | IC50 (HCT116; Homo sapiens, HCT-116, 72 h): > 25 µg/mL and > 95.7 µM | IC50 (HL-60; Homo sapiens, HL-60, 72 h): > 25 µg/mL and > 95.7 µM | IC50 (HepG2 cells; Homo sapiens, HepG2, 72 h): > 25 µg/mL and > 95.7 µM
